Data on one compound can be found in ChEMBL document CHEMBL4340512, “Discovery of novel triazolo[4,3-b]pyridazin-3-yl-quinoline derivatives as PIM inhibitors” (Eur J Med Chem, 2019).

The test system of series [1] is Raji. The experiment in a line: Antiproliferative activity against human Raji cells incubated for 72 hrs by CellTiter-Glo luminescence assay. In kind it is functional. A general note: In ATP-based viability assays light output follows the ATP content of the culture.
Series [2] concerns MIA PaCa-2. The experiment in a line: Antiproliferative activity against human MIAPaCa2 assessed as combination index at 20 uM incubated for 72 hrs in presence of GI50 dose of GDC-0941 by CellTiter-Glo luminescence assay. In kind it is functional.
Series [3] can be described thus: Clearance in iv dosed Balb/c mouse administered as single dose measured after 0.08 to 4 hrs by HPLC/MS analysis. It is filed as ADME, organism-based. The note with it: in vivo.
Series [4] has as its system T47D. The experiment in a line: Antiproliferative activity against human T47D assessed as combination index at 20 uM incubated for 72 hrs in presence of GI50 dose of GDC-0941 by CellTiter-Glo luminescence assay. In kind it is functional.
Series [5] addresses Serine/threonine-protein kinase pim-1 (Homo sapiens, UniProt P11309). Put plainly: Inhibition of PIM1 in human NCI-H1299 cells assessed as reduction in BAD phosphorylation at Ser-112 residue incubated for 4 hrs by ELISA. In kind it is cell-based. The note with it: read-out: EC50.
Series [6] concerns HL-60. The experiment in a line: Antiproliferative activity against human HL60 cells incubated for 72 hrs by CellTiter-Glo luminescence assay. It is filed as functional. The note with it: HL-60, 72 h.

One may read the GI50 as the concentration at which growth is held to half of that of the control. High values mean less potent growth inhibition, low ones more potent growth inhibition. Usually clearance stands for a measure of how efficiently the substance is removed, as volume per time. A higher clearance goes with efficient removal. The EC50 is the concentration at which the effect is half-maximal.

The structures appear in SMILES notation.

For the compound `COCCN1CCOc2c1cnn1c(-c3ccc4cccc(NCC5CCNCC5)c4n3)nnc21`, the GI50 came out at 20 µM in series [1] and 13.6 µM in series [6]. In addition, the CI in series [2] was found to be 0.075; in series [4] it was 0.598. The clearance in series [3] was 21 mL/min/kg. Further, the EC50 in series [5] came to 0.262 µM.
